Paper PMC11866022, “Long-Chain Cyclic Arylguanidines as Multifunctional Serotonin Receptor Ligands with Antiproliferative Activity” (ACS Omega, 2025)

Legend:
[1] = test system: AsPC-1 pancreatic cancer cells; assay: Antiproliferative activity (MTS), AsPC-1; format: cell-based, human; details: Homo sapiens, ASPC1; MTS assay, 72 h
Procedure: (§1) The chosen group of ligands was further examined for their ability to inhibit proliferation across multiple cancer cell lines related to the CNS system (1321N1, U87MG, LN-229, and U-251). These cell lines were characterized by different mutation profiles, the main one being the variable status of the p53 protein. In detail, U87MG cells have a wild-type p53 protein, while astrocytoma and the rest of GBM cells harbor mutated p53 protein. Additional assays were performed on MCF7 breast cancer and AsPC-1 pancreatic cancer cells. The wide range of tested lines was aimed at screening the anticancer potential of the tested compounds. The first represents one of the most common and the second one of the most aggressive cancers in the world. Comparing the activity of compounds on GBM cells to other types of cancer may reveal their selectivity and usefulness in targeted therapies. The cytotoxicity of the compounds on normal human astrocytes (NHA) and Feline catus astrocyte (PG-4) was determined. Tests on normal lines serve to verify the potential toxicity of the tested compounds on healthy cells. Due to the targeting of CNS tumors, astrocytes were selected as normal lines.
(§2) The detailed procedure is presented in previous publications.[53] Briefly, the study utilized various human cancer and normal cell lines, including LN-229 (glioblastoma), MCF7 (breast carcinoma), HepG2 (hepatoma), U-251 (glioblastoma), U87MG (glioblastoma), AsPC-1 (pancreatic adenocarcinoma), and NHA (normal human astrocytes). Cells were cultured in appropriate media, supplemented with FBS, antibiotics, and other supplements, and incubated at 37 °C with 5% CO2. Compounds were dissolved in DMSO, prepared at various concentrations (1–25 μM), and applied to the cells for 72 h. Cell viability was assessed using the MTS assay, and the inhibitory concentration (IC50) was calculated using GraphPad Prism 8.0. Each compound was tested in triplicate across multiple experiments.

[2] = test system: U-251 glioblastoma cells; assay: Antiproliferative activity (MTS), U-251; format: cell-based, human; details: Homo sapiens, U-251; MTS assay, 72 h
Procedure: as §1, with “These” for “The chosen group of ligands was further examined for their ability to inhibit proliferation across multiple cancer cell lines related to the CNS system (1321N1, U87MG, LN-229, and U-251). These”
(§3) The detailed procedure is presented in previous publications.[53] […] Cells were cultured in appropriate media, supplemented with FBS, antibiotics, and other supplements, and incubated at 37 °C with 5% CO2. […] Cell viability was assessed using the MTS assay, and the inhibitory concentration (IC50) was calculated using GraphPad Prism 8.0. Each compound was tested in triplicate across multiple experiments.

[3] = target: T1, 5-HT7 (Homo sapiens, UniProt P34969); assay: Radioligand binding assay, 5-HT7 ([3H]-5-CT); details: Table 3, unit inferred; 0.8 nM [3H]-5-CT
T1 construct: expressed in transfected cells; host or cells: HEK293
T1 sequence (P34969 whole entry, species assumed): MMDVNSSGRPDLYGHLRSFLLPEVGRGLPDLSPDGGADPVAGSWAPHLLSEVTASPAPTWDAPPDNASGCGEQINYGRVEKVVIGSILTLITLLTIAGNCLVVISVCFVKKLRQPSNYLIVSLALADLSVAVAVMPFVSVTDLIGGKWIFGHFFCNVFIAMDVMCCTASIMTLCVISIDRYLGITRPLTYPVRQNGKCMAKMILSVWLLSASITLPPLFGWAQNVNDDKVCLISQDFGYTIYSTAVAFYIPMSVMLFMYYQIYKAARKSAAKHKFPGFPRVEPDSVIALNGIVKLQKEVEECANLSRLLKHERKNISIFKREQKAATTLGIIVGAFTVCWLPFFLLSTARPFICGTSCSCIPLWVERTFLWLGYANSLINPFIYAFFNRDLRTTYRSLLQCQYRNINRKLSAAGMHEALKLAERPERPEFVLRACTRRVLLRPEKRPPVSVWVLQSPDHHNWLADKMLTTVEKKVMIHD
Procedure: (§4) Their functional activity was also evaluated by assessing their ability to inhibit agonist-induced cAMP production in HEK293 cells (Table 3). Extended radioisotope tests were aimed at detecting potential affinity for other aminergic receptors, whose role in cancer treatment may be important. Functions were tested for all receptors. The essence of functional tests results from the fact that serotonin stimulates tumor progression. Therefore, the ligand should have the potential to reduce its concentration, i.e., act as an antagonist.[39]
The detailed procedure is presented in previous publications.[53] Assays were performed by incubating for 1 h at 37 °C (room temperature for 5-HT1A) in 200 μL volumes on 96-well plates. The reaction was terminated by rapid filtration using Unifilter plates, and radioactivity on the filters was measured with a PerkinElmer Microbeta plate reader. Radioligands used were:
Eight concentrations (10^–4 to 10^–11 M) were tested in triplicate for each compound. Inhibition constants (Ki) were calculated using the Cheng–Prusoff equation.[54] The results are expressed as the means of at least two independent experiments.

[4] = test system: MCF7 breast cancer cells; assay: Antiproliferative activity (MTS), MCF7; format: cell-based, human; details: Homo sapiens, MCF7; MTS assay, 72 h
Procedure: as §1, with “These” for “The chosen group of ligands was further examined for their ability to inhibit proliferation across multiple cancer cell lines related to the CNS system (1321N1, U87MG, LN-229, and U-251). These”
as §3

[5] = target: T2, 5-HT6 (Homo sapiens, UniProt P50406); assay: Functional cAMP assay (LANCE Ultra), 5-HT6; format: cell-based; details: for function at 5-HT6: in words; for Kb: Table 3, unit inferred, cAMP, antagonist mode, 5-CT
T2 construct: expressed in transfected cells; host or cells: HEK293
T2 sequence (P50406 whole entry): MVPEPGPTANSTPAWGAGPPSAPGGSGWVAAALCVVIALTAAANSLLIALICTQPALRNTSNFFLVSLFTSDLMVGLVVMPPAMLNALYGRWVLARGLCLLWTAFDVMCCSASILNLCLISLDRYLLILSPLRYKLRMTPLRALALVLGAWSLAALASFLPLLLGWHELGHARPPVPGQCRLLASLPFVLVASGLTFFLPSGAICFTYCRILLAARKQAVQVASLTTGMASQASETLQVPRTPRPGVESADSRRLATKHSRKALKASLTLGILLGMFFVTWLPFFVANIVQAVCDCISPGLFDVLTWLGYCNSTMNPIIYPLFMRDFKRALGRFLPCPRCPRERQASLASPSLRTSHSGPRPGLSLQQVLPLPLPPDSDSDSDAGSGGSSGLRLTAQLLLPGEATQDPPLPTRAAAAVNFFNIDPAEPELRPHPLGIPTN
Procedure: as §4
The detailed procedure is presented in previous publications.[53] The functional activity of the compounds was assessed using the LANCE Ultra cAMP detection kit (PerkinElmer). […] For other receptors (5-HT7R, 5-HT1AR, and 5-HT6R), 5-CT was used at 10, 100, and 1000 nM, respectively. Each compound was tested in triplicate across eight concentrations. The inhibitory constant (Kb) for each antagonist was calculated using the Cheng–Prusoff equation.

[6] = test system: HEK293; assay: Viability of HEK293 cells; format: cell-based; details: Homo sapiens
Excerpt: PP 10 was characterized by a moderate 5-HT1A/5-HT5A/5-HT6/5-HT7 antagonist profile. […] Due to its potential function as an […], the viability of HEK293 cells treated with the test compounds was examined. No cytotoxic effects of the compounds were detected in the tested concentration range.

[7] = test system: normal human astrocytes (NHA); assay: Cytotoxicity (MTS), normal human astrocytes; format: cell-based; details: for IC50: Homo sapiens, Astrocyte, 72 h, normal human astrocytes, MTS assay
Procedure: as §1, §2

SMILES	IC50 [1]	IC50 [2]	Ki [3]	IC50 [4]	function at 5-HT6 [5]	IC50 [6]	IC50 [7]	Kb [5]	selectivity index ([7]; normal astrocytes versus cancer cell lines)
O=S(=O)(c1cccc2ccccc12)N1CCN(CCNC2=Nc3ccccc3CN2)CC1 [PP 6, N-{2-[4-(Naphthalene-1-sulfonyl)piperazin-1-yl]ethyl}-3,4-dihydroquinazolin-2-amine]	> 25 µM	> 25 µM	2.4 µM	> 25 µM	agonist	51 µM	–	–	–
CC1NC(NCCCCCCNS(=O)(=O)c2cccc3ccccc23)=Nc2ccccc21 (stereo not drawn) [PP 10, N-{6-[(4-Methyl-3,4-dihydroquinazolin-2-yl)amino]hexyl}naphthalene-1-sulfonamide]	> 25 µM	> 25 µM	0.189 µM	> 25 µM	antagonist	> 50 µM	12.6 ± 0.4 µM	0.036 µM	–
CC1NC(NCCCCCCNS(=O)(=O)c2c(Cl)ccc3ccccc23)=Nc2ccccc21 (stereo not drawn) [PP 13, 2-Chloro-N-{6-[(4-methyl-3,4-dihydroquinazolin-2-yl)amino]hexyl}naphthalene-1-sulfonamide]	14.6 ± 0.5 µM	> 25 µM	0.198 µM	19.3 ± 0.3 µM	agonist	> 50 µM	4.2 ± 0.4 µM	–	–
O=S(=O)(NCCCCCCNc1ncc2ccccc2n1)c1cccc2ccccc12 [PP 15, N-{6-[(Quinazolin-2-yl)amino]hexyl}naphthalene-1-sulfonamide]	> 25 µM	> 25 µM	1.56 µM	> 25 µM	antagonist	> 50 µM	–	0.048 µM	–
O=S1(=O)c2cccc3cccc(c23)N1CCCCCCNC1=Nc2ccccc2CN1 [PP 24, 3-{6-[(3,4-Dihydroquinazolin-2-yl)amino]hexyl}-2λ^6-thia-3-azatricyclo[6.3.1.0^4,^12]dodeca-1(11),4(12),5,7,9-pentaene-2,2-dione]	12.1 ± 1 µM	16.5 ± 1 µM	–	15.7 ± 1.6 µM	–	–	7.9 ± 0.4 µM	–	below 1
